{"source": "patent US4447452A", "about": "“N[(2-Naphthalenyl)thioxomethyl]glycine derivatives” (Ayerst, McKenna & Harrison Inc., priority 1981, dated 1984)", "key": {"aldose reductase [1]": {"tested_on": "aldose reductase", "conditions": "literature report; cited from earlier work"}, "aldose reductase [2]": {"molecular_target": "T1, aldose reductase (Bos taurus, UniProt P16116)", "T1 construct": "preparation of the enzyme from bovine lens; from tissue; host or cells: bovine lens", "experiment": "in vitro aldose reductase inhibition (modified Hayman and Kinoshita procedure, enzyme from bovine lens)", "format": "biochemical", "conditions": "read-out: % Inhibition at Different Molar Concentrations (in vitro); for inhibition at 10 µM: 10^-5 molar; for inhibition at 1 µM: 10^-6 molar; for inhibition at 0.1 µM: 10^-7 molar", "procedure": "In the present case the procedure of Hayman and Kinoshita is modified in that the final chromatography step is omitted in the preparation of the enzyme from bovine lens.\nThe following results were obtained when the compounds of this invention were evaluated in the above in vitro test."}}}
{"smiles": "O=C(O)CN1C(=O)c2cccc3cccc(c23)C1=O", "note": "[1,3-Dioxo-1H-benz[de]isoquinoline-2(3H)-acetic acid]", "values": [{"measurement": "inhibition of aldose reductase (in words)", "setting": "aldose reductase [1]", "value": "effective inhibitor of aldose reductase"}]}
{"smiles": "CN(CC(=O)O)C(=S)c1ccc2c(Br)cccc2c1", "note": "[CH3 5-Br, N-[(5-bromo-2-naphthalenyl)thioxomethyl]-N-methylglycine]", "values": [{"measurement": "inhibition at 10 µM", "setting": "aldose reductase [2]", "value": 87, "unit": "%"}, {"measurement": "inhibition at 1 µM", "setting": "aldose reductase [2]", "value": 70, "unit": "%"}, {"measurement": "inhibition at 0.1 µM", "setting": "aldose reductase [2]", "value": 21, "unit": "%"}]}
{"smiles": "CN(CC(=O)O)C(=S)c1ccc2cc(Br)ccc2c1", "note": "[CH3 6-Br, N-[(6-Bromo-2-naphthalenyl)thioxomethyl]-N-methylglycine]", "values": [{"measurement": "inhibition at 10 µM", "setting": "aldose reductase [2]", "value": 84, "unit": "%"}, {"measurement": "inhibition at 1 µM", "setting": "aldose reductase [2]", "value": 60, "unit": "%"}, {"measurement": "inhibition at 0.1 µM", "setting": "aldose reductase [2]", "value": 19, "unit": "%"}]}
{"smiles": "O=C1NC(=O)[C@@]2(CCOc3ccc(F)cc32)N1", "note": "[sorbinil, (S)-6-Fluoro-2,3-dihydrospiro(4H-1-benzopyran-4,4'-imidazolidine)-2',5'-dione]", "values": [{"measurement": "inhibition of aldose reductase (in words)", "setting": "aldose reductase [1]", "value": "aldose reductase inhibiting properties"}]}
